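In this assay, cells in 96-well plates receive the compound at five concentrations for 48 hours. Endpoints are linearly interpolated between the surrounding concentrations. Here, GI50 denotes the concentration required for 50% inhibition of growth. TGI: total growth inhibition.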
Legend:
Test in all cases: NCI tumour cell line growth inhibition, 48 h
[1] = tested on: SW-620 colon
[2] = tested on: TK-10 renal
[3] = tested on: CAKI-1 renal
[4] = tested on: EKVX NSCLC
[5] = tested on: UACC-257 melanoma
[6] = tested on: CCRF-CEM leukemia
[7] = tested on: HS 578T breast
[8] = tested on: KM12 colon
[9] = tested on: HOP-62 NSCLC
[10] = tested on: HOP-92 NSCLC

SMILES	TGI [1]	TGI [2]	TGI [3]	TGI [4]	TGI [5]	TGI [6]	TGI [7]	TGI [8]	TGI [9]	TGI [10]	GI50 [8]
CN1C/C(=C\c2cccs2)C2=NN(c3ccccc3)C(c3cccs3)C2C1 (stereo not given)	> 100 µM	> 100 µM	> 100 µM	> 100 µM	> 100 µM	5.95 µM	> 100 µM	> 100 µM	> 100 µM	–	–
O=C1/C(=C/c2cccc([N+](=O)[O-])c2)N=C(c2ccccc2)N1c1nc2ccc(Sc3ccccc3)cc2[nH]1	> 100 µM	> 100 µM	> 100 µM	> 100 µM	> 100 µM	–	> 100 µM	> 100 µM	> 100 µM	> 100 µM	–
CC1=C[P+](c2ccccc2)(c2ccccc2)c2ccccc2O1	> 100 µM	94.4 µM	> 100 µM	> 100 µM	> 100 µM	–	11.6 µM	10.8 µM	59 µM	9.34 µM	–
COc1cc(/C=C2\C(=O)N(c3cccc(NC(C)=O)c3)C(c3ccccc3)S2(=O)=O)cc(OC)c1OC (stereo not given)	> 100 µM	> 100 µM	> 100 µM	> 100 µM	> 100 µM	> 100 µM	–	> 100 µM	> 100 µM	> 100 µM	–
COc1ccc(-c2c(C#N)c(N)[nH]c(=S)c2C#N)cc1	> 100 µM	> 100 µM	> 100 µM	> 100 µM	> 100 µM	–	66.6 µM	> 100 µM	> 100 µM	> 100 µM	–
CC(O)C(CO)NC(=O)C1CSSCC(NC(=O)C(N)Cc2ccccc2)C(=O)NC(Cc2ccccc2)C(=O)NC(Cc2c[nH]c3ccccc23)C(=O)NC(CCCCN)C(=O)NC(C(C)O)C(=O)N1 (stereo not given)	> 100 µM	> 100 µM	> 100 µM	> 100 µM	> 100 µM	> 100 µM	–	> 100 µM	> 100 µM	> 100 µM	–
N=c1oc2ccc3ccccc3c2cc1-c1nc2ccccc2c(=O)[nH]1	> 100 µM	90.4 µM	> 100 µM	> 100 µM	> 100 µM	–	87.6 µM	43 µM	45.4 µM	41.9 µM	–
Cc1[nH]c(=O)nc(N/N=C/c2c3ccccc3c(Cl)c3ccccc23)c1C(=O)Nc1ccc(Cl)cc1	> 100 µM	> 100 µM	> 100 µM	–	> 100 µM	89.3 µM	–	–	> 100 µM	–	–
CCC1c2[nH]c3ccccc3c2C[C@H]2C(=O)NC(C)C(=O)N12 (stereo not given in full)	> 100 µM	> 100 µM	> 100 µM	> 100 µM	> 100 µM	–	> 100 µM	> 100 µM	> 100 µM	> 100 µM	–
CCC1(O)C(=O)OCc2c1cc1n(c2=O)Cc2cc3cc4c(cc3nc2-1)OCO4 (stereo not given)	18.7 µM	37.3 µM	0.046 µM	4.27 µM	0.822 µM	–	> 100 µM	5.69 µM	< 0.0198 µM	0.6 µM	97.8 nM
Cc1ccc([N+](=O)[O-])cc1S(=O)(=O)Nc1ccc(C2=NN(S(=O)(=O)c3cc([N+](=O)[O-])ccc3C)C(c3cccs3)C2)cc1 (stereo not given)	> 100 µM	> 100 µM	> 100 µM	> 100 µM	> 100 µM	–	53.7 µM	> 100 µM	> 100 µM	> 100 µM	–
C(=N\NC1=NCCCCN1)/c1ccc2ccccc2c1	52.4 µM	> 100 µM	–	> 100 µM	46.6 µM	> 100 µM	> 100 µM	> 100 µM	> 100 µM	62.7 µM	–
CCCCn1c(=O)[nH]c2c(N)ncnc21	> 100 µM	> 100 µM	–	> 100 µM	> 100 µM	> 100 µM	> 100 µM	–	> 100 µM	> 100 µM	–
O=[N+]([O-])c1ccc(C[P+]2(c3ccccc3)CCCCC2)cc1 (tested in a mixture with another compound)	> 100 µM	> 100 µM	> 100 µM	> 100 µM	> 100 µM	> 100 µM	–	> 100 µM	> 100 µM	–	–
COc1cc(/C=C/C(=O)CC(=O)/C=C/c2cc(C)c(O)c(OC)c2)cc(C)c1O	> 100 µM	–	> 100 µM	> 100 µM	> 100 µM	> 100 µM	> 100 µM	> 100 µM	> 100 µM	> 100 µM	–
CCC1(CC)C(=O)NC(=O)NC1=S	> 100 µM	> 100 µM	–	> 100 µM	> 100 µM	> 100 µM	–	–	> 100 µM	> 100 µM	–
NCCCn1c(Cl)nc2ccccc21	> 100 µM	–	> 100 µM	> 100 µM	–	> 100 µM	> 100 µM	> 100 µM	> 100 µM	–	–
